Like-named read-outs stand apart in the source and are kept apart here.
Experiments:
Assay type in all cases: cell-based
AKT1 WT = target: T1, AKT1 WT (Homo sapiens, UniProt P31749); assay: Live cell AKT1 WT target engagement by NanoBRET competitive probe displacement; details: HEK293 cells transfected with kinase-NanoLuciferase fusion, 2 h at 37° C.
T1 construct: expressed in transfected cells; host or cells: HEK293
How it was run: (§1)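 IC50 reflects displacement of a fluorescent ATP-competitive tracer, dosed near its EC50, from kinase–NanoLuciferase fusions in live HEK293 cells. Cells were incubated with compound and tracer for 2 h at 37 °C, then E600/E460 BRET was read.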

AKT2 = target: T2, AKT2 (Homo sapiens, UniProt P31751); assay: Live cell AKT2 target engagement by NanoBRET competitive probe displacement; details: HEK293 cells transfected with kinase-NanoLuciferase fusion, 2 h at 37° C.
T2 construct: expressed in transfected cells; host or cells: HEK293
How it was run: as §1

AKT1 E17K = target: T3, AKT1 E17K (Homo sapiens, UniProt P31749, E17K); assay: Live cell AKT1 E17K target engagement by NanoBRET competitive probe displacement; details: HEK293 cells transfected with kinase-NanoLuciferase fusion, 2 h at 37° C.
T3 construct: expressed in transfected cells; host or cells: HEK293
How it was run: as §1

[1] = system: LAPC4 prostate cancer cells; assay: Antiproliferative effects in LAPC4 cells (CellTiter Glo); details: LAPC4 cells (AKT1 E17K allele), read-out: LAPC4 proliferation IC50
How it was run: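 Seed 1,000 cells/well in IMDM/12% FBS/1% P/S; add compound dilutions (DMSO); incubate 72 h; read intracellular ATP with CellTiter Glo; fit luminescence to log(inhibitor)-response Hill curve for IC50.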

T3 sequence (P31749 whole entry E17K, the tested form may be a part): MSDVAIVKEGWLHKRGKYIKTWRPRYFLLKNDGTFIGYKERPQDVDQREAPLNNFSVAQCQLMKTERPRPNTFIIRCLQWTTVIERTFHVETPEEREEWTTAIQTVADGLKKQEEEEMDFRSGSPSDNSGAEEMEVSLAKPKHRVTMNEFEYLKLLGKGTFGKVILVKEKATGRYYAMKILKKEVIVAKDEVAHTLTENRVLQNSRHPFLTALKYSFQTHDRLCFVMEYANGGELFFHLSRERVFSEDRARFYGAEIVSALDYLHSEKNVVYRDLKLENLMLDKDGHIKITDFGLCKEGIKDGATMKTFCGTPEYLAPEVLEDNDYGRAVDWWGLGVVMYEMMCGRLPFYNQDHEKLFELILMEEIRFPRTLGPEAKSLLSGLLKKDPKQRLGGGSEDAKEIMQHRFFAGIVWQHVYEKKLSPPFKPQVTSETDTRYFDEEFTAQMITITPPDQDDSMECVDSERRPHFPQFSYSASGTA
T2 sequence (P31751 whole entry, the tested form may be a part): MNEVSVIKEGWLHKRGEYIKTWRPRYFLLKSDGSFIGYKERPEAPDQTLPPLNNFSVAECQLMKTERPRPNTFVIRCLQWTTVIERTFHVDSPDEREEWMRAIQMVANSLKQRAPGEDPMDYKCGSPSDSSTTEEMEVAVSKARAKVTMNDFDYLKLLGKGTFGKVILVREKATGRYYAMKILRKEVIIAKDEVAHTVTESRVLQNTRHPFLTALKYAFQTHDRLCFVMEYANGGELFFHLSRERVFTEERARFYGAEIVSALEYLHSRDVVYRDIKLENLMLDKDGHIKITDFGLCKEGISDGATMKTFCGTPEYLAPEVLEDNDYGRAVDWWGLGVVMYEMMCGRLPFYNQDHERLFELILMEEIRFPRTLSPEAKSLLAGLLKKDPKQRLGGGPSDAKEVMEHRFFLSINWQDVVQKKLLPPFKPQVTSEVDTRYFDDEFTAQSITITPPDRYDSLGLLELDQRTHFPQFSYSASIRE
T1 sequence (P31749 whole entry, the tested form may be a part): as the sequence (P31749 whole entry E17K, the tested form may be a part) above, with K17E counted along it

SMILES	IC50 (AKT1 WT)	IC50 (AKT2)	IC50 (AKT1 E17K)	IC50 ([1]; 72 h)	IC50 ([1]; Homo sapiens, LAPC4, 72 h)
C=CC(=O)N1C[C@@H]2C[C@H]1CC2N[C@H]1CCc2cc(-n3c(-c4cccnc4N)nc4ccc(-n5cccn5)nc43)ccc21 (single isomer, unassigned) [Example 136, 1-[(1S,4S,5*)-5-{[(1S)-5-[2-(2-aminopyridin-3-yl)-5-(pyrazol-1-yl)imidazo[4,5-b]pyridin-3-yl]-2,3-dihydro-1H-inden-1-yl]amino}-2-azabicyclo[2.2.1]heptan-2-yl]prop-2-en-1-one]	95.8 nM	1950 nM	211 nM	520 nM	
C=CC(=O)N1CCC(N[C@@H]2c3ccc(-n4c(-c5cccnc5N)nc5ccc(-n6cccn6)nc54)cc3CC2F)C[C@H]1C (single isomer, unassigned) [Example 143, 1-((2R,4*)-4-(((1R,2*)-5-(2-(2-aminopyridin-3-yl)-5-(1H-pyrazol-1-yl)-3H-imidazo[4,5-b]pyridin-3-yl)-2-fluoro-2,3-dihydro-1H-inden-1-yl)amino)-2-methylpiperidin-1-yl)prop-2-en-1-one]	60.2 nM	1260 nM	353 nM		499 nM
C=CC(=O)N1CCC(N[C@@H]2c3ccc(-n4c(-c5cccnc5N)nc5ccc(-n6cccn6)nc54)cc3CC2F)C[C@H]1C (single isomer, unassigned) [Example 144, 1-((2R,4*)-4-(((1R,2*)-5-(2-(2-aminopyridin-3-yl)-5-(1H-pyrazol-1-yl)-3H-imidazo[4,5-b]pyridin-3-yl)-2-fluoro-2,3-dihydro-1H-inden-1-yl)amino)-2-methylpiperidin-1-yl)prop-2-en-1-one]	26 nM	1180 nM	74.1 nM	293 nM	
C=CC(=O)N1CCC(N[C@@H]2c3ccc(-n4c(-c5cccnc5N)nc5ccc(-n6cccn6)nc54)cc3CC2F)C[C@H]1C (single isomer, unassigned) [Example 145, 1-((2R,4*)-4-(((1R,2*)-5-(2-(2-aminopyridin-3-yl)-5-(1H-pyrazol-1-yl)-3H-imidazo[4,5-b]pyridin-3-yl)-2-fluoro-2,3-dihydro-1H-inden-1-yl)amino)-2-methylpiperidin-1-yl)prop-2-en-1-one]	29.7 nM	1030 nM	187 nM	436 nM	
C=CC(=O)N1CCC(N[C@@H]2c3ccc(-n4c(-c5cccnc5N)nc5ccc(-n6cccn6)nc54)cc3CC2F)C[C@H]1C (single isomer, unassigned) [Example 146, 1-((2R,4*)-4-(((1R,2*)-5-(2-(2-aminopyridin-3-yl)-5-(1H-pyrazol-1-yl)-3H-imidazo[4,5-b]pyridin-3-yl)-2-fluoro-2,3-dihydro-1H-inden-1-yl)amino)-2-methylpiperidin-1-yl)prop-2-en-1-one]	22.9 nM	1580 nM	78.4 nM	448 nM	
C=CC(=O)N1CCN(NC2CCc3cc(-n4c(-c5cccnc5N)nc5ccc(-n6cccn6)nc54)ccc32)CC1 (single isomer, unassigned) [Example 147, (*)-1-(4-((5-(2-(2-aminopyridin-3-yl)-5-(1H-pyrazol-1-yl)-3H-imidazo[4,5-b]pyridin-3-yl)-2,3-dihydro-1H-inden-1-yl)amino)piperazin-1-yl)prop-2-en-1-one]	32 nM	903 nM	151 nM	398 nM	
C=CC(=O)N1CCN(NC2CCc3cc(-n4c(-c5cccnc5N)nc5ccc(-n6cccn6)nc54)ccc32)CC1 (single isomer, unassigned) [Example 148, (*)-1-(4-((5-(2-(2-aminopyridin-3-yl)-5-(1H-pyrazol-1-yl)-3H-imidazo[4,5-b]pyridin-3-yl)-2,3-dihydro-1H-inden-1-yl)amino)piperazin-1-yl)prop-2-en-1-one]	12.5 nM	61 nM	38 nM	93.3 nM	

Second part, the compound after the results:

IC50 (AKT1 WT)	IC50 (AKT2)	IC50 (AKT1 E17K)	IC50 ([1]; 72 h)	IC50 ([1]; Homo sapiens, LAPC4, 72 h)	SMILES
14.2 nM	244 nM	71.6 nM	161 nM		C=CC(=O)N1C[C@H]2C[C@@H]1CC2N[C@H]1CCc2cc(-n3c(-c4cccnc4N)nc4ccc(-n5cccn5)nc43)ccc21 (single isomer, unassigned) [Example 137, 1-[(1R,4R,5*)-5-{[(1S)-5-[2-(2-aminopyridin-3-yl)-5-(pyrazol-1-yl)imidazo[4,5-b]pyridin-3-yl]-2,3-dihydro-1H-inden-1-yl]amino}-2-azabicyclo[2.2.1]heptan-2-yl]prop-2-en-1-one]
289 nM	1810 nM	744 nM	963 nM		C=CC(=O)N1C[C@H]2C[C@@H]1CC2N[C@H]1CCc2cc(-n3c(-c4cccnc4N)nc4ccc(-n5cccn5)nc43)ccc21 (single isomer, unassigned) [Example 138, 1-[(1R,4R,5*)-5-{[(1S)-5-[2-(2-aminopyridin-3-yl)-5-(pyrazol-1-yl)imidazo[4,5-b]pyridin-3-yl]-2,3-dihydro-1H-inden-1-yl]amino}-2-azabicyclo[2.2.1]heptan-2-yl]prop-2-en-1-one]
13.5 nM	114 nM	29.7 nM	41.9 nM		C=CC(=O)N1CCC(N[C@H]2CCc3cc(-n4c(-c5cccnc5N)nc5ccc(-n6cccn6)nc54)ccc32)C(O)C1 (single isomer, unassigned) [Example 139, 1-[(3*,4*)-4-{[(1S)-5-[2-(2-aminopyridin-3-yl)-5-(pyrazol-1-yl)imidazo[4,5-b]pyridin-3-yl]-2,3-dihydro-1H-inden-1-yl]amino}-3-hydroxypiperidin-1-yl]prop-2-en-1-one]
370 nM	3580 nM	> 1000 nM	1490 nM		C=CC(=O)N1CCC(N[C@H]2CCc3cc(-n4c(-c5cccnc5N)nc5ccc(-n6cccn6)nc54)ccc32)C(O)C1 (single isomer, unassigned) [Example 140, 1-[(3*,4*)-4-{[(1S)-5-[2-(2-aminopyridin-3-yl)-5-(pyrazol-1-yl)imidazo[4,5-b]pyridin-3-yl]-2,3-dihydro-1H-inden-1-yl]amino}-3-hydroxypiperidin-1-yl]prop-2-en-1-one]
148 nM	872 nM	554 nM	1700 nM		C=CC(=O)N1CCC(N[C@H]2CCc3cc(-n4c(-c5cccnc5N)nc5ccc(-n6cccn6)nc54)ccc32)C(O)C1 (single isomer, unassigned) [Example 141, 1-[(3*,4*)-4-{[(1S)-5-[2-(2-aminopyridin-3-yl)-5-(pyrazol-1-yl)imidazo[4,5-b]pyridin-3-yl]-2,3-dihydro-1H-inden-1-yl]amino}-3-hydroxypiperidin-1-yl]prop-2-en-1-one]
> 1000 nM	> 10000 nM	> 1000 nM	3460 nM		C=CC(=O)N1CCC(N[C@H]2CCc3cc(-n4c(-c5cccnc5N)nc5ccc(-n6cccn6)nc54)ccc32)C(O)C1 (single isomer, unassigned) [Example 142, 1-[(3*,4*)-4-{[(1S)-5-[2-(2-aminopyridin-3-yl)-5-(pyrazol-1-yl)imidazo[4,5-b]pyridin-3-yl]-2,3-dihydro-1H-inden-1-yl]amino}-3-hydroxypiperidin-1-yl]prop-2-en-1-one]
